Assay results from patent US20240131044A1, “METHOD FOR TREATING CANCER” (M.T.3, Inc., priority 2022, published 2024).

System: CHO cells
Assay: Colony formation, survival fraction of CHO cells
Assay type: cell-based, Chinese hamsters
Procedure: An anti-cancer agent and a pharmaceutical composition were administered to test cells and then the cells were cultured. Then, after colonies were formed, the number of colonies was counted. Here, samples in which the concentration of the anti-cancer agent to be administered was varied were prepared, and in each sample, the survival fraction of the cells compared with the case where cells were cultured without administration of the pharmaceutical composition was measured. Regarding the type of anti-cancer agent to be administered, a predetermined anti-cancer agent was selected depending on the type of administration target cells. Note that cells that were cultured without administration of the pharmaceutical composition and the anti-cancer agent were used as a control. Hereinafter, these steps will be described.
Here, CHO cells, V79 cells, and canine-derived cancer cells were prepared as the test cells. The CHO cells are ovarian cells derived from Chinese hamsters, and the V79 cells are fibroblasts derived from the lungs of Chinese hamsters. Melanoma developing cells (CML6M) and soft tissue sarcoma developing cells (STSA-1) were used as the cancer cells.
The cancer cells were prepared by being cultured using an αMEM culture medium supplemented with 10% serum and an antibiotic. The cancer cells were prepared such that, when the concentration of the cells in a cell suspension obtained by subjecting the cultured cells to PBS washing and trypsin treatment, the concentration was within a predetermined concentration range. Here, the predetermined concentration ranges were 300 cells/well, 100 to 150 cells/well, and 500 to 1000 cells/well for the CHO/V79 cells, the melanoma cells, and the soft tissue sarcoma cells, respectively.
Next, the cancer cells were cultured in culture environments to which the anti-cancer agent was added at various concentrations, and were then allowed to form colonies. The culture periods for colony formation were a week, 10 days, and 14 days for CHO and V79, melanoma, and soft tissue sarcoma, respectively. After colonies were formed, washing using a physiological saline solution, fixation using 100% ethanol, and staining using 0.1% crystal violet were performed, and then the number of colonies per well was counted under a microscope. Note that, here, the colony was defined as containing 50 or more cells. […]
In the above examples, the anti-cancer agent and the pharmaceutical composition were administered to the test cells and then the cells were cultured. In this example, test cells were cultured after administering pharmaceutical composition (SQAP) alone without administering the anti-cancer agent to the test cells, and then the number of colonies was counted after colonies were formed. […]

Compound: CCCCCCCCCCCCCCCCCC(=O)OCCCO[C@H]1O[C@H](CS(=O)(=O)O)[C@@H](O)[C@H](O)[C@H]1O [SQAP, sulfoquinovosylacylpropanediol]
- survival fraction (SQAP 30 μM alone): about 75%
- survival fraction (mitomycin C 500 nM + SQAP 30 μM): about 1%
- survival fraction (mitomycin C 500 μM + SQAP 30 μM (as restated in Example 10)): about 1%
